The supplement of paper PMC10307832

Experiments:
Assay in all cases: relative viability (nuclei count vs DMSO), 5 days (fraction); higher = more cells survive
[1] = tested on: NCI-H1355
How it was run: (§1)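 The day after seeding in 1536-well plates, lung cancer cell lines were treated by pin tool with a single drug, or with a fixed anchor-drug dose together with five library-drug doses (not always all listed) in √10 steps. After 5 days, a combined fix-and-stain solution (final 0.05% Triton X-100, 1% formaldehyde, 1 ug/ml Hoechst) was added. Nuclei counted on 4× images gave relative viability as treated counts over vehicle counts, reported as the median of duplicate plates.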

[2] = tested on: NCI-H2342
How it was run: as §1

[3] = tested on: H3255
How it was run: as §1

[4] = tested on: NCI-H1975
How it was run: as §1

[5] = tested on: EPLC-272H
How it was run: as §1

[6] = tested on: NCI-H322M
How it was run: as §1

[7] = tested on: NCI-H460
How it was run: as §1

[8] = tested on: NCI-H2087
How it was run: as §1

[9] = tested on: EKVX
How it was run: as §1

[10] = tested on: HCC-366
How it was run: as §1

[11] = tested on: NCI-H2009
How it was run: as §1

[12] = tested on: SK-MES-1
How it was run: as §1

[13] = tested on: NCI-H1792
How it was run: as §1

[14] = tested on: COR-L 105
How it was run: as §1

[15] = tested on: HCC-827
How it was run: as §1

[16] = tested on: NCI-H441
How it was run: as §1

[17] = tested on: NCI-H2085
How it was run: as §1

[18] = tested on: ABC-1
How it was run: as §1

[19] = tested on: NCI-H1993
How it was run: as §1

[20] = tested on: ChaGo-K-1
How it was run: as §1

Cc1cn(-c2cc(NC(=O)c3ccc(C)c(Nc4nccc(-c5cccnc5)n4)c3)cc(C(F)(F)F)c2)cn1 [Nilotinib] + Nc1ncn([C@H]2C[C@H](O)[C@@H](CO)O2)c(=O)n1 [Decitabine] (partner 2 µM)
relative viability ([1]; first compound 0.001 µM): 0.355
relative viability ([1]; first compound 0.003162 µM): 0.381
relative viability ([1]; first compound 0.01 µM): 0.382
relative viability ([1]; first compound 0.03162 µM): 0.408
relative viability ([1]; first compound 0.1 µM): 0.418
relative viability ([2]; first compound 0.001 µM): 0.704
relative viability ([2]; first compound 0.003162 µM): 0.735
relative viability ([2]; first compound 0.01 µM): 0.666
relative viability ([2]; first compound 0.03162 µM): 0.591
relative viability ([2]; first compound 0.1 µM): 0.754
relative viability ([3]; first compound 0.001 µM): 0.549
relative viability ([3]; first compound 0.003162 µM): 0.659
relative viability ([3]; first compound 0.03162 µM): 0.667
relative viability ([3]; first compound 0.1 µM): 0.692
relative viability ([4]; first compound 0.001 µM): 0.339
relative viability ([4]; first compound 0.003162 µM): 0.393
relative viability ([4]; first compound 0.01 µM): 0.383
relative viability ([4]; first compound 0.03162 µM): 0.389
relative viability ([4]; first compound 0.1 µM): 0.275
relative viability ([5]; first compound 0.001 µM): 0.294
relative viability ([5]; first compound 0.003162 µM): 0.368
relative viability ([5]; first compound 0.01 µM): 0.436
relative viability ([5]; first compound 0.03162 µM): 0.341
relative viability ([5]; first compound 0.1 µM): 0.338
relative viability ([6]; first compound 0.001 µM): 0.724
relative viability ([6]; first compound 0.003162 µM): 0.786
relative viability ([6]; first compound 0.01 µM): 0.673
relative viability ([6]; first compound 0.03162 µM): 0.654
relative viability ([6]; first compound 0.1 µM): 0.898
relative viability ([7]; first compound 0.001 µM): 0.443
relative viability ([7]; first compound 0.003162 µM): 0.648
relative viability ([7]; first compound 0.01 µM): 0.56
relative viability ([7]; first compound 0.03162 µM): 0.325
relative viability ([7]; first compound 0.1 µM): 0.306
relative viability ([8]; first compound 0.001 µM): 0.202
relative viability ([8]; first compound 0.003162 µM): 0.244
relative viability ([8]; first compound 0.01 µM): 0.261
relative viability ([8]; first compound 0.03162 µM): 0.18
relative viability ([8]; first compound 0.1 µM): 0.131
relative viability ([9]; first compound 0.001 µM): 0.307
relative viability ([9]; first compound 0.003162 µM): 0.413
relative viability ([9]; first compound 0.01 µM): 0.394
relative viability ([9]; first compound 0.03162 µM): 0.305
relative viability ([9]; first compound 0.1 µM): 0.648
relative viability ([10]; first compound 0.001 µM): 0.325
relative viability ([10]; first compound 0.003162 µM): 0.348
relative viability ([10]; first compound 0.01 µM): 0.41
relative viability ([10]; first compound 0.03162 µM): 0.445
relative viability ([10]; first compound 0.1 µM): 0.37
relative viability ([11]; first compound 0.001 µM): 0.372
relative viability ([11]; first compound 0.003162 µM): 0.393
relative viability ([11]; first compound 0.01 µM): 0.412
relative viability ([11]; first compound 0.03162 µM): 0.406
relative viability ([11]; first compound 0.1 µM): 0.421
relative viability ([12]; first compound 0.001 µM): 0.409
relative viability ([12]; first compound 0.003162 µM): 0.487
relative viability ([12]; first compound 0.01 µM): 0.575
relative viability ([12]; first compound 0.03162 µM): 0.617
relative viability ([12]; first compound 0.1 µM): 0.46
relative viability ([13]; first compound 0.001 µM): 0.463
relative viability ([13]; first compound 0.003162 µM): 0.691
relative viability ([13]; first compound 0.01 µM): 0.66
relative viability ([13]; first compound 0.03162 µM): 0.403
relative viability ([13]; first compound 0.1 µM): 0.633
relative viability ([14]; first compound 0.001 µM): 0.735
relative viability ([14]; first compound 0.003162 µM): 0.734
relative viability ([14]; first compound 0.01 µM): 0.743
relative viability ([14]; first compound 0.03162 µM): 0.732
relative viability ([14]; first compound 0.1 µM): 0.751
relative viability ([15]; first compound 0.001 µM): 0.303
relative viability ([15]; first compound 0.003162 µM): 0.41
relative viability ([15]; first compound 0.03162 µM): 0.296
relative viability ([15]; first compound 0.1 µM): 0.328
relative viability ([16]; first compound 0.001 µM): 0.295
relative viability ([16]; first compound 0.003162 µM): 0.304
relative viability ([16]; first compound 0.01 µM): 0.284
relative viability ([16]; first compound 0.03162 µM): 0.367
relative viability ([16]; first compound 0.1 µM): 0.365
relative viability ([17]; first compound 0.001 µM): 0.591
relative viability ([17]; first compound 0.003162 µM): 0.619
relative viability ([17]; first compound 0.01 µM): 0.675
relative viability ([17]; first compound 0.03162 µM): 0.794
relative viability ([17]; first compound 0.1 µM): 0.76
relative viability ([18]; first compound 0.001 µM): 0.987
relative viability ([18]; first compound 0.003162 µM): 0.946
relative viability ([18]; first compound 0.01 µM): 1.05
relative viability ([18]; first compound 0.03162 µM): 0.978
relative viability ([18]; first compound 0.1 µM): 0.96
relative viability ([19]; first compound 0.001 µM): 0.496
relative viability ([19]; first compound 0.003162 µM): 0.694
relative viability ([19]; first compound 0.01 µM): 0.658
relative viability ([19]; first compound 0.03162 µM): 0.517
relative viability ([19]; first compound 0.1 µM): 0.62
relative viability ([20]; first compound 0.001 µM): 0.528
relative viability ([20]; first compound 0.003162 µM): 0.584
relative viability ([20]; first compound 0.01 µM): 0.585
relative viability ([20]; first compound 0.03162 µM): 0.519
relative viability ([20]; first compound 0.1 µM): 0.577

CN1CCN(CCOc2cc(OC3CCOCC3)c3c(Nc4c(Cl)ccc5c4OCO5)ncnc3c2)CC1 [Saracatinib] + Nc1ncn([C@H]2C[C@H](O)[C@@H](CO)O2)c(=O)n1 [Decitabine] (partner 2 µM)
relative viability ([1]; first compound 0.02 µM): 0.345
relative viability ([1]; first compound 0.2 µM): 0.35
relative viability ([1]; first compound 0.6325 µM): 0.358
relative viability ([1]; first compound 2 µM): 0.354
relative viability ([2]; first compound 0.02 µM): 0.791
relative viability ([2]; first compound 0.2 µM): 0.677
relative viability ([2]; first compound 0.6325 µM): 0.673
relative viability ([2]; first compound 2 µM): 0.656
relative viability ([3]; first compound 0.02 µM): 0.605
relative viability ([3]; first compound 0.2 µM): 0.587
relative viability ([3]; first compound 0.6325 µM): 0.579
relative viability ([3]; first compound 2 µM): 0.209
relative viability ([4]; first compound 0.02 µM): 0.45
relative viability ([4]; first compound 0.2 µM): 0.37
relative viability ([4]; first compound 0.6325 µM): 0.386
relative viability ([4]; first compound 2 µM): 0.338
relative viability ([5]; first compound 0.02 µM): 0.388
relative viability ([5]; first compound 0.2 µM): 0.361
relative viability ([5]; first compound 0.6325 µM): 0.442
relative viability ([5]; first compound 2 µM): 0.37
relative viability ([6]; first compound 0.02 µM): 0.79
relative viability ([6]; first compound 0.2 µM): 0.473
relative viability ([6]; first compound 0.6325 µM): 0.659
relative viability ([6]; first compound 2 µM): 0.409
relative viability ([7]; first compound 0.02 µM): 0.457
relative viability ([7]; first compound 0.2 µM): 0.242
relative viability ([7]; first compound 0.6325 µM): 0.423
relative viability ([7]; first compound 2 µM): 0.32
relative viability ([8]; first compound 0.02 µM): 0.322
relative viability ([8]; first compound 0.2 µM): 0.226
relative viability ([8]; first compound 0.6325 µM): 0.27
relative viability ([8]; first compound 2 µM): 0.293
relative viability ([9]; first compound 0.02 µM): 0.346
relative viability ([9]; first compound 0.6325 µM): 0.323
relative viability ([9]; first compound 2 µM): 0.211
relative viability ([10]; first compound 0.02 µM): 0.321
relative viability ([10]; first compound 0.2 µM): 0.148
relative viability ([10]; first compound 0.6325 µM): 0.293
relative viability ([10]; first compound 2 µM): 0.194
relative viability ([11]; first compound 0.02 µM): 0.406
relative viability ([11]; first compound 0.2 µM): 0.35
relative viability ([11]; first compound 0.6325 µM): 0.35
relative viability ([11]; first compound 2 µM): 0.322
relative viability ([12]; first compound 0.02 µM): 0.353
relative viability ([12]; first compound 0.2 µM): 0.352
relative viability ([12]; first compound 0.6325 µM): 0.36
relative viability ([12]; first compound 2 µM): 0.203
relative viability ([13]; first compound 0.02 µM): 0.597
relative viability ([13]; first compound 0.2 µM): 0.464
relative viability ([13]; first compound 0.6325 µM): 0.687
relative viability ([13]; first compound 2 µM): 0.522
relative viability ([14]; first compound 0.02 µM): 0.719
relative viability ([14]; first compound 0.2 µM): 0.485
relative viability ([14]; first compound 0.6325 µM): 0.635
relative viability ([14]; first compound 2 µM): 0.458
relative viability ([15]; first compound 0.02 µM): 0.359
relative viability ([15]; first compound 0.2 µM): 0.225
relative viability ([15]; first compound 0.6325 µM): 0.19
relative viability ([15]; first compound 2 µM): 0.151
relative viability ([16]; first compound 0.02 µM): 0.221
relative viability ([16]; first compound 0.2 µM): 0.232
relative viability ([16]; first compound 0.6325 µM): 0.212
relative viability ([16]; first compound 2 µM): 0.243
relative viability ([17]; first compound 0.02 µM): 0.531
relative viability ([17]; first compound 0.2 µM): 0.478
relative viability ([17]; first compound 0.6325 µM): 0.602
relative viability ([17]; first compound 2 µM): 0.469
relative viability ([18]; first compound 0.02 µM): 1.01
relative viability ([18]; first compound 0.2 µM): 1.04
relative viability ([18]; first compound 0.6325 µM): 1.06
relative viability ([18]; first compound 2 µM): 1.02
relative viability ([19]; first compound 0.02 µM): 0.63
relative viability ([19]; first compound 0.2 µM): 1.43
relative viability ([19]; first compound 0.6325 µM): 0.521
relative viability ([19]; first compound 2 µM): 0.556
relative viability ([20]; first compound 0.02 µM): 0.577
relative viability ([20]; first compound 0.2 µM): 0.427
relative viability ([20]; first compound 0.6325 µM): 0.579
relative viability ([20]; first compound 2 µM): 0.542
